According to ChEMBL document CHEMBL1201862, “PubChem BioAssay data set” (2004):
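Compound exposure: 48 hours, 5 concentrations, 96-well plates. GI50 is the concentration that inhibits growth by half.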 Calls of active or inactive are those of the source. Rule as the data show it: active = GI50 up to about 1.1 µM and inactive = higher.

Key:
Test in all cases: inhibition of tumour cell growth, NCI panel, 48 h
NCI-H522 = tested on: NCI-H522
KM12 = tested on: KM12
SN12C = tested on: SN12C
OVCAR-5 = tested on: OVCAR-5
HOP-62 = tested on: HOP-62
ACHN = tested on: ACHN
Malme-3M = tested on: Malme-3M
SK-MEL-2 = tested on: SK-MEL-2
IGROV-1 = tested on: IGROV-1
RPMI-8226 = tested on: RPMI-8226
A549 = tested on: A549
HL-60 = tested on: HL-60
SK-OV-3 = tested on: SK-OV-3
OVCAR-8 = tested on: OVCAR-8
OVCAR-3 = tested on: OVCAR-3
SF-268 = tested on: SF-268
A498 = tested on: A498

Measured: GI50

C[Si](C)(C)C1(Sc2ccccc2)SCCCS1
inactive: NCI-H522 17.9 µM | KM12 64.7 µM | SN12C 27 µM | OVCAR-5 > 100 µM | HOP-62 29.7 µM | ACHN 35.9 µM | Malme-3M 70.6 µM | SK-MEL-2 58.9 µM | IGROV-1 41.8 µM | RPMI-8226 24.6 µM | A549 31.9 µM | HL-60 12 µM | SK-OV-3 > 100 µM | OVCAR-8 33.8 µM | OVCAR-3 30.1 µM | SF-268 31.8 µM | A498 40.6 µM

CC#C[C@@]1(O)CCCCC1O (stereo partly specified)
inactive: NCI-H522 > 100 µM | KM12 > 100 µM | SN12C > 100 µM | HOP-62 > 100 µM | ACHN > 100 µM | Malme-3M > 100 µM | SK-MEL-2 > 100 µM | IGROV-1 > 100 µM | RPMI-8226 > 100 µM | A549 > 100 µM | HL-60 > 100 µM | SK-OV-3 > 100 µM | OVCAR-8 > 100 µM | OVCAR-3 > 100 µM | SF-268 > 100 µM | A498 > 100 µM

FC1OC2OC1C(OCc1ccccc1)C(OCc1ccccc1)C2OCc1ccccc1 (stereo unspecified)
inactive: NCI-H522 > 10 µM | KM12 49.1 µM | SN12C 58.6 µM | OVCAR-5 > 100 µM | Malme-3M 48.3 µM | SK-MEL-2 71.8 µM | IGROV-1 34.6 µM | RPMI-8226 22.9 µM | A549 72.8 µM | HL-60 24.9 µM | SK-OV-3 > 100 µM | OVCAR-8 35.4 µM | OVCAR-3 36.8 µM | SF-268 32.4 µM | A498 > 100 µM

NC(=O)NC12CC3CC(CC(F)(C3)C1)C2
inactive: NCI-H522 > 100 µM | KM12 > 100 µM | OVCAR-5 > 100 µM | HOP-62 > 100 µM | ACHN > 100 µM | Malme-3M > 100 µM | SK-MEL-2 > 100 µM | IGROV-1 > 100 µM | RPMI-8226 > 100 µM | A549 > 100 µM | HL-60 > 100 µM | SK-OV-3 > 100 µM | OVCAR-8 > 100 µM | OVCAR-3 > 100 µM | A498 > 100 µM

COC(=O)C(=O)C(CC(=O)Nc1cccc(C(F)(F)F)c1)C(=O)OC (stereo unspecified)
inactive: NCI-H522 > 100 µM | SN12C > 100 µM | OVCAR-5 > 100 µM | HOP-62 > 100 µM | ACHN > 100 µM | Malme-3M > 100 µM | SK-MEL-2 > 100 µM | IGROV-1 > 100 µM | RPMI-8226 > 100 µM | A549 > 100 µM | HL-60 > 100 µM | SK-OV-3 > 100 µM | OVCAR-8 > 100 µM | SF-268 > 100 µM | A498 > 100 µM

O=C(Nc1cccc([N+](=O)[O-])c1)C(=O)C(C(=O)c1ccccc1-c1ccccc1)C1OC(=O)c2ccccc21 (stereo unspecified)
inactive: NCI-H522 11.4 µM | KM12 20 µM | OVCAR-5 22 µM | HOP-62 16.6 µM | ACHN 35.6 µM | Malme-3M 13.6 µM | SK-MEL-2 17.9 µM | IGROV-1 30.8 µM | RPMI-8226 13.4 µM | A549 26.9 µM | HL-60 16.2 µM | SK-OV-3 32.5 µM | OVCAR-8 22.3 µM | OVCAR-3 15.4 µM | SF-268 22.2 µM | A498 23.2 µM

COc1ccc2ccc([Se]c3ccc4ccc(OC)cc4c3)cc2c1
inactive: NCI-H522 84.5 µM | KM12 51.9 µM | SN12C 90.6 µM | HOP-62 > 100 µM | ACHN 29.2 µM | Malme-3M > 100 µM | SK-MEL-2 > 100 µM | IGROV-1 > 100 µM | RPMI-8226 49.9 µM | A549 > 100 µM | HL-60 > 100 µM | SK-OV-3 > 100 µM | OVCAR-8 21.8 µM | OVCAR-3 > 100 µM | SF-268 61.1 µM | A498 > 100 µM

Cc1ccc2c(c1)C1(C)OC(CC(N)C1O)O2 (stereo unspecified)
inactive: NCI-H522 > 100 µM | KM12 > 100 µM | SN12C > 100 µM | HOP-62 > 100 µM | ACHN > 100 µM | Malme-3M > 100 µM | SK-MEL-2 > 100 µM | IGROV-1 > 100 µM | RPMI-8226 > 100 µM | A549 > 100 µM | HL-60 > 100 µM | SK-OV-3 > 100 µM | OVCAR-8 > 100 µM | OVCAR-3 > 100 µM

CC(=O)NC(CCCN(Cc1ccccc1)C(=O)N(C)N=O)C(=O)NCc1ccccc1 (stereo unspecified)
inactive: NCI-H522 37.1 µM | KM12 > 100 µM | SN12C > 100 µM | OVCAR-5 > 100 µM | HOP-62 > 100 µM | ACHN > 100 µM | Malme-3M > 100 µM | SK-MEL-2 > 100 µM | IGROV-1 > 100 µM | RPMI-8226 > 100 µM | A549 > 100 µM | SK-OV-3 > 100 µM | OVCAR-8 > 100 µM | OVCAR-3 > 100 µM | SF-268 95.3 µM | A498 > 100 µM

CC1=CC(/C=C(\C)CCCc2ccoc2)C2(OC(=O)C(C)=C2O)[C@H]2C1CC[C@@H]2C (stereo partly specified)
inactive: NCI-H522 13.9 µM | KM12 31.8 µM | SN12C 20.5 µM | ACHN 19.8 µM | Malme-3M 26.6 µM | IGROV-1 32.3 µM | RPMI-8226 13.3 µM | A549 23.4 µM | SK-OV-3 26.2 µM | OVCAR-8 28.6 µM | OVCAR-3 21.4 µM | A498 15.5 µM

COC(=O)C(C#CCCCCC#CC(NC(=O)OCc1ccccc1)(C(=O)OC)C(F)(F)F)(NC(=O)OCc1ccccc1)C(F)(F)F (stereo unspecified)
inactive: NCI-H522 > 100 µM | KM12 > 100 µM | SN12C > 100 µM | OVCAR-5 > 100 µM | HOP-62 > 100 µM | ACHN > 100 µM | Malme-3M > 100 µM | IGROV-1 > 100 µM | RPMI-8226 4.36 µM | A549 73.6 µM | HL-60 > 100 µM | SK-OV-3 > 100 µM | OVCAR-8 > 100 µM | OVCAR-3 > 100 µM | SF-268 > 100 µM | A498 > 100 µM

NC(=O)C1C(=O)Oc2cccnc21 (stereo unspecified)
inactive: NCI-H522 > 100 µM | KM12 > 100 µM | SN12C > 100 µM | HOP-62 > 100 µM | ACHN > 100 µM | Malme-3M > 100 µM | IGROV-1 > 100 µM | RPMI-8226 > 100 µM | A549 > 100 µM | SK-OV-3 > 100 µM | OVCAR-8 > 100 µM | OVCAR-3 > 100 µM

Cc1cccc(C(C)(C)C)c1NC(=O)CC1Sc2ccccc2NC1=O (stereo unspecified)
inactive: NCI-H522 > 100 µM | KM12 95.1 µM | SN12C > 100 µM | OVCAR-5 > 100 µM | HOP-62 > 100 µM | ACHN 57.5 µM | Malme-3M > 100 µM | IGROV-1 > 100 µM | RPMI-8226 19 µM | A549 > 100 µM | HL-60 46.1 µM | SK-OV-3 > 100 µM | OVCAR-8 94.2 µM | OVCAR-3 55.7 µM | SF-268 87.9 µM | A498 > 100 µM
